“And” between values parts separate entries of the source, which are not always exact repeats. Equal values may be shown once. “Also recorded” adds a separate entry of the source. Marks after values point to notes of the source that are not given here.
Experiments:
MDA-MB-231^GFP cells [1] = experiment: In vivo treatment with mini-osmotic pumps (osteolytic bone metastasis model);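 for Mean size of lesion: mean lesion size in relative units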;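 for Size of lesion (per animal): lesion size in relative units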; parameters: species or system nude rats; settings: for X-ray scan of hind legs: lytic lesions (in words): FIG. 5-7; for T/C / Mean size of lesion / Size of lesion (per animal): mini-osmotic pumps; for T/C: vs NSO control; for T/C × 100: mean lesion size vs NSO control rats; for Incidence of metastasis: mini-osmotic pumps s.c., 7 mg/kg daily over four weeks
MDA-MB-231^GFP cells [2] = experiment: In vivo model with pretreated MDA-MB-231^GFP cells (osteolytic bone metastasis); parameters: species or system nude rats; lesion size of the rat(s) that developed lytic metastasis, % of control / lesion sizes with respect to all animals of the group compared to untreated control / lesion size of individual animal compared to the untreated control / T/C % (mean lesion size compared to untreated control): concentration or dose not given beside the values; settings: for T/C × 100: mean lesion size vs untreated control rats; for Incidence of metastasis: cells pretreated in vitro (10 μM);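 for Mean size of lesion: mean lesion size in relative units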
[3] = tested on: MDA-MB-231 breast cancer cells; experiment: Clonogenicity assay (colony formation); format: cell-based, human; settings: for inhibition of colony formation (colony growth inhibition): single exposure; for reduction of colony counts: twofold exposure
Outline: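 MDA-MB-231 cells given lipofectamine-complexed ASO (5, 10 or 20 μM, 12 h) and/or ErPC3 (10, 14, 20 μM, 24 h), singly or in sequential cycles, then grown 48-72 h. 5000 cells plated in methylcellulose/30% FBS; MTT-stained colonies (≥30 cells) counted after 5-7 days.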

For “5′-CTAACTTAAAAAACAAAAGA-3′ (antisense CTAACTTAAAAAACAAAAGA; all phosphorothioate, sugars by position and methylation of C not given here) [ASO-OPN-4]”, the “X-ray scan of hind legs: lytic lesions (in words)” value (MDA-MB-231^GFP cells [1]; eight weeks after tumor cell implantation) was “clear increase of lytic lesions in the tibia, however new formation of bone tissue at the edges of the lesions”, the “X-ray scan of hind legs: lytic lesions (in words)” value (MDA-MB-231^GFP cells [1]; four weeks after tumor cell implantation, therapy from implantation) was “small lytic lesions in the tibia” and the “X-ray scan of hind legs: lytic lesions (in words)” value (MDA-MB-231^GFP cells [1]; six weeks after tumor cell implantation) was “visible lytic lesions in the tibia”. The “X-ray scan of hind legs: lytic lesions (in words)” value (MDA-MB-231^GFP cells [1]; ten weeks after tumor cell implantation) was “a decrease of the lesions is clearly visible”, the T/C (MDA-MB-231^GFP cells [1]; week 4) was 58% and the T/C (MDA-MB-231^GFP cells [1]; week 12) was 26%. The “T/C × 100” value (MDA-MB-231^GFP cells [1]; week 4) was 58, the “Mean size of lesion” value (MDA-MB-231^GFP cells [1]; week 4) was 19 R.U and the “Size of lesion (per animal)” value (MDA-MB-231^GFP cells [1]; week 4) was 20 R.U. and 41 R.U. and 0 R.U. (2×) and 34 R.U. The Incidence of metastasis (MDA-MB-231^GFP cells [1]; week 4, 7 mg/kg) was “three out of five and 3/5”, the “T/C × 100” value (MDA-MB-231^GFP cells [1]; week 6) was 41 and the “Mean size of lesion” value (MDA-MB-231^GFP cells [1]; week 6) was 73 R.U. The “Size of lesion (per animal)” value (MDA-MB-231^GFP cells [1]; week 6) was 35 R.U. and 285 R.U. and 0 R.U. (2×) and 46 R.U, the Incidence of metastasis (MDA-MB-231^GFP cells [1]; week 6) was 3/5 and the “T/C × 100” value (MDA-MB-231^GFP cells [1]; week 8) was 45. The “Mean size of lesion” value (MDA-MB-231^GFP cells [1]; week 8) was 124 R.U, the “Size of lesion (per animal)” value (MDA-MB-231^GFP cells [1]; week 8) was 117 R.U. and 415 R.U. and 27 R.U. and 60 R.U. and 0 R.U and the Incidence of metastasis (MDA-MB-231^GFP cells [1]; week 8) was 4/5. The “T/C × 100” value (MDA-MB-231^GFP cells [1]; week 9) was 48, the “Mean size of lesion” value (MDA-MB-231^GFP cells [1]; week 9) was 134 R.U and the “Size of lesion (per animal)” value (MDA-MB-231^GFP cells [1]; week 9) was 435 R.U. and 123 R.U. and 53 R.U. and 57 R.U. and 0 R.U. For the same substance, the Incidence of metastasis (MDA-MB-231^GFP cells [1]; week 9) was 4/5, the “T/C × 100” value (MDA-MB-231^GFP cells [1]; week 10) was 29 and the “Mean size of lesion” value (MDA-MB-231^GFP cells [1]; week 10) was 124 R.U. The “Size of lesion (per animal)” value (MDA-MB-231^GFP cells [1]; week 10) was 74 R.U. and 67 R.U. and 45 R.U. and 0 R.U, the Incidence of metastasis (MDA-MB-231^GFP cells [1]; week 10) was 4/5 and the “T/C × 100” value (MDA-MB-231^GFP cells [1]; week 12) was 26. The “Mean size of lesion” value (MDA-MB-231^GFP cells [1]; week 12) was 112 R.U, the “Size of lesion (per animal)” value (MDA-MB-231^GFP cells [1]; week 12) was 31 R.U. (2×) and 64 R.U. and 0 R.U and the Incidence of metastasis (MDA-MB-231^GFP cells [1]; week 12) was 3. The “T/C × 100” value (MDA-MB-231^GFP cells [2]; 4 weeks) was 3.9, the “T/C × 100” value (MDA-MB-231^GFP cells [2]; 6 weeks) was 3.8 and the “T/C × 100” value (MDA-MB-231^GFP cells [2]; 8 weeks) was 4.3. The “X-ray scan of hind legs: osteolytic lesions (in words)” value (MDA-MB-231^GFP cells [2]; FIG. 3 and FIG. 4, one rat each, cells pre-exposed, listed as ASO-OPN-04) was “no osteolysis; also recorded: no visible lytic lesions”, the “rats in which formation of osteolytic metastasis was inhibited (no visible metastasis)” value (MDA-MB-231^GFP cells [2]; cells pre-exposed to ASO, observation period of eight weeks, listed as ASO-OPN-04) was “Three of four and 3 of 4” and the Incidence of metastasis (MDA-MB-231^GFP cells [2]; observation period 4 weeks) was 1/4. For the same substance, the “Mean size of lesion” value (MDA-MB-231^GFP cells [2]; observation period 4 weeks, pretreated cells) was 8.5 R.U, the Incidence of metastasis (MDA-MB-231^GFP cells [2]; observation period 6 weeks) was 1/4 and the “Mean size of lesion” value (MDA-MB-231^GFP cells [2]; observation period 6 weeks, pretreated cells) was 11.5 R.U. For the same substance, the Incidence of metastasis (MDA-MB-231^GFP cells [2]; observation period 8 weeks) was 1/4^4), the “Mean size of lesion” value (MDA-MB-231^GFP cells [2]; observation period 8 weeks, pretreated cells) was 15 R.U and the “T/C % (mean lesion size compared to untreated control)” value (MDA-MB-231^GFP cells [2]; pretreated cells, after eight weeks) was 4.3%. For the same substance, the “lesion sizes with respect to all animals of the group compared to untreated control” value (MDA-MB-231^GFP cells [2]; pretreated cells, over observation period week 4 to week 8) was “about 4%”, the “lesion sizes of the one metastasis-bearing animal compared to the control” value (MDA-MB-231^GFP cells [2]; pretreated cells, overall observation period (8 weeks)) was “about 16%” and the “lesion size of the rat(s) that developed lytic metastasis” value (MDA-MB-231^GFP cells [2]; pretreated cells, week 4) was 34 R.U. For the same substance, the “lesion size of the rat(s) that developed lytic metastasis, % of control” value (MDA-MB-231^GFP cells [2]; pretreated cells, week 4, vs mean of the two control groups (197 R.U.)) was 17%, the “lesion size of the rat(s) that developed lytic metastasis” value (MDA-MB-231^GFP cells [2]; pretreated cells, week 8) was 60 R.U and the “lesion size of the rat(s) that developed lytic metastasis, % of control” value (MDA-MB-231^GFP cells [2]; pretreated cells, week 8, vs mean of the two control groups (416 R.U.)) was 17%. For the same substance, the “% Control” value ([3]; Exp. III a, repeated exposure 2 × 5 μM) was 84%, the Mean colony no. ([3]; Exp. III a, repeated exposure 2 × 5 μM, control 456) was 381^6,8) and the “% Control” value ([3]; Exp. III a, repeated exposure 2 × 10 μM) was 51%. The Mean colony no. ([3]; Exp. III a, repeated exposure 2 × 10 μM, control 456) was 233^7,8), the “% Control” value ([3]; Exp. III a, repeated exposure 2 × 20 μM) was 40% and the Mean colony no. ([3]; Exp. III a, repeated exposure 2 × 20 μM, control 456) was 181^7). For the same substance, the “% Control” value ([3]; Experiment I, single treatment, 5 μM) was 85%, the Mean colony no. ([3]; Experiment I, single treatment, 5 μM, control 778) was 658^6) and the “% Control” value ([3]; Experiment I, single treatment, 10 μM) was 61%. The Mean colony no. ([3]; Experiment I, single treatment, 10 μM, control 778) was 475^7), the “% Control” value ([3]; Experiment I, single treatment, 20 μM) was 53% and the Mean colony no. ([3]; Experiment I, single treatment, 20 μM, control 778) was 416. The “% Control” value ([3]; Experiment III b, repeated exposure 2 × 5 μM) was 63%, the Mean colony no. ([3]; Experiment III b, repeated exposure 2 × 5 μM, control 517) was 330^6,8) and the “% Control” value ([3]; Experiment III b, repeated exposure 2 × 10 μM) was 57%. For the same substance, the Mean colony no. ([3]; Experiment III b, repeated exposure 2 × 10 μM, control 517) was 296^7,8), the “% Control” value ([3]; Experiment III b, repeated exposure 2 × 20 μM) was 50% and the Mean colony no. ([3]; Experiment III b, repeated exposure 2 × 20 μM, control 517) was 258^8). For the same substance, the “inhibition of colony formation (colony growth inhibition)” value (“inhibition of colony formation” below) ([3]; 5 μM) was 15%, the “inhibition of colony formation” value ([3]; 10 μM) was 39% and the “inhibition of colony formation” value ([3]; 20 μM, listed as ASO-OPN-04, 20 µM) was 47% and 46%. For the same substance, the “reduction of colony counts” value ([3]; 5 μM) was 16%, the “reduction of colony counts” value ([3]; 20 μM) was 60% and the “repeated exposure compared with single exposure, colony formation (in words)” value ([3]; twofold vs single ASO exposure) was “more effective than single exposure”.

Source: patent US20090017103A1, “Antisense oligonucleotides for prevention of metastasis formation of cancer cells” (priority 2003, published 2009)
